Measurements: patent US8507656B2, “Stabilized angiopoietin-2 antibodies and uses thereof” (MedImmune Limited, priority 2008, dated 2013)
Entries after “also recorded” stand apart in the source; their conditions may differ. Read-outs that look alike come from different tables or passages of the source. Marks after values point to notes of the source that are not given here.

What was measured:
LoVo xenograft tumors = type: in vivo; conditions: 3.19.3 10 mg/kg 2×wk i.p., 5FU 100 mg/kg/week i.p., combination of both
Procedure: (§1) The anti-tumor activity of 3.19.3 was evaluated in combination with 5-Fluoruracil (5FU) in the LoVo xenograft model of colorectal cancer. LoVo cells were cultured in flasks as routine until the cells reached sub-confluence. Cell suspensions containing approximately 3×10E6 cells were injected subcutaneously into the flank of female Swiss nude mice. When the tumor volume reached 200 mm^3, the mice were randomized in treatment groups of 8-10 mice and the treatments were initiated. 3.19.3 (10 mg/kg) in saline was injected intraperitoneally, twice per week for 2 weeks and 5-Flurouracil (100 mg/kg) was administered by intraperitoneal administration following a weekly schedule. The dimensions of each tumor and body weights were measured at least twice per week. The volume of the tumor was calculated as: Volume=Length×(Width)×0.5 (cm^3).

MCF7 xenograft tumors = assay: MCF7 breast cancer xenograft model; type: in vivo; conditions: 3.19.3 10 mg/kg 2×wk i.p., AZD6495 30 mg/kg bid p.o. 18 d, combination of both
Procedure: The anti-tumor activity of the anti-Angiopoietin-2 monoclonal antibody 3.19.3 in combination with the small molecule CSF1R tyrosine kinase inhibitor AZD6495 (4-[(2,4-difluorophenyl)amino]-7-ethoxy-6-(4-methylpiperazin-1-yl)quinoline-3-carboxamide) was evaluated in a xenograft model of human breast carcinoma using the MCF7 cell line (FIG. 4a).
Materials and Methods: Breast carcinoma MCF7 cells were cultured in flasks as routine until the cells reach sub-confluence. Immunodeficient 7-10 week old male NCr-nude mice were subcutaneously implanted with 8×10^6 MCF7 cells suspended 1:1 in Matrigel in the right flank. […]
The mice were then randomized into cohorts containing 15 mice once the tumors reached approximately 100 mm^3. […] The body weights of each animal, and the dimensions of each tumor were measured twice per week. The volume of the tumor was calculated as: Volume=Length×(Width)^2×0.5 cm^3, or by bilateral Vernier caliper measurement and, taking length to be the longest diameter across the tumor and width the corresponding perpendicular, calculated using the formula (π/6)×(length×width)×√(length×width). Growth inhibition from the start of treatment was assessed by comparison of the differences in tumor volume between control and treated groups.

[1] = test system: MDA-MB-231 xenograft tumors; assay: MDA-MB-231 orthotopic breast cancer xenograft model; type: in vivo; conditions: 3.19.3 10 mg/kg 2×wk i.p., AZD6495 30 mg/kg bid p.o. 18 d, combination of both
Procedure: The anti-tumor activity of the anti-Angiopoietin-2 monoclonal antibody 3.19.3 in combination with the small molecule CSF1R tyrosine kinase inhibitor AZD6495 was evaluated in a xenograft model of human breast carcinoma using the MDA-MB-231 cell line (FIG. 5a).
Breast adenocarcinoma MDA-MB-231 cells were cultured in flasks as routine until the cells reach sub-confluence. Immunodeficient 7-10 week old female nude mice were orthotopically implanted with 8×10^6 MDA-MB-231 cells suspended 1:1 in Matrigel into the mammary fat pad. The mice were then randomized into cohorts containing 10 mice once the tumors reached approximately 100 mm^3. The mice were treated by intraperitoneally (IP) injection with mAb 3.19.3 (10 mg/kg) twice per week for 3 weeks thereafter, or by oral administration of AZD6495 (30 mg/kg) following bid dosing for 18 days. […] The body weights of each animal, and the dimensions of each tumor were measured twice per week. The volume of the tumor was calculated as: Volume=Length×(Width)^2×0.5 cm^3, or by bilateral Vernier caliper measurement and, taking length to be the longest diameter across the tumor and width the corresponding perpendicular, calculated using the formula (π/6)×(length×width)×√(length×width). Growth inhibition from the start of treatment was assessed by comparison of the differences in tumor volume between control and treated groups.

Calu6 xenograft tumors = type: in vivo; conditions: 3.19.3 10 mg/kg 2×wk i.p., Docetaxel 15 mg/kg/week i.v., combination of both
Procedure: as §1, with “with Docetaxel” for “with 5-Fluoruracil (5FU)”, “the Calu6” for “the LoVo”, “of lung” for “of colorectal”, “cancer. Calu6” for “cancer. LoVo”, “2 weeks. Docetaxel (15” for “2 weeks and 5-Flurouracil (100”, “by intravenous” for “by intraperitoneal”

Colo205 xenograft tumors = assay: Colo205 xenograft model of colorectal cancer; type: in vivo; conditions: 3.19.3 10 mg/kg 2×wk i.p., Gemcitabine 50 mg/kg q3dx2 i.v., combination of both
Procedure: (§2) The anti-tumor activity of 3.19.3 was evaluated in combination with Gemcitabine in the Colo205 xenograft model of colorectal cancer. Colo205 cells were cultured in flasks as routine until the cells reached sub-confluence. Cell suspensions containing approximately 3×10E6 cells were injected subcutaneously into the flank of female Swiss nude mice. When the tumor volume reached 200 mm^3, the mice were randomized in treatment groups of 8-10 mice and the treatments were initiated. 3.19.3 (10 mg/kg) in saline was injected intraperitoneally, twice per week for 2 weeks. Gemcitabine (50 mg/kg) was administered by intravenous administration following a q3d schedule. The dimensions of each tumor and body weights were measured at least twice per week. The volume of the tumor was calculated as: Volume=Length×(Width)×0.5 (cm^3). […] The % tumor growth inhibition achieved is as follows: […]

HT-29 xenograft tumors = assay: HT-29 xenograft model of colorectal cancer; type: in vivo; conditions: 3.19.3 10 mg/kg 2×wk i.p., Irinotecan 35 mg/kg/week i.v., combination of both
Procedure: as §2, with “Irinotecan” for “Gemcitabine”, “HT-29” for “Colo205”, “Irinotecan (35” for “Gemcitabine (50”, “weekly” for “q3d”

H460 xenograft tumors = type: in vivo; conditions: 3.19.3 10 mg/kg 2×wk i.p., Oxaliplatin 5 mg/kg/week i.p., combination of both
Procedure: as §1, with “Oxaliplatin” for “5-Fluoruracil (5FU)”, “H460” for “LoVo”, “lung” for “colorectal”, “weeks. Oxaliplatin (5” for “weeks and 5-Flurouracil (100”

[2] = test system: collagen-induced arthritis; assay: Collagen-induced arthritis (CIA), dose response (Example 11); type: in vivo, male DBA/1 mice
[3] = test system: collagen induced arthritis
[4] = Stability study: rate of aggregation of antibody formulations; type: physicochemical; conditions: 10 mg/ml in 10 mM histidine pH 6.0, two weeks
Procedure: Samples of the aforementioned formulations were incubated at either 25° C. or 40° C. for two weeks. As a measure of stability, the rate of aggregation (% aggregation/mth) was calculated after the two week time point.

[5] = Differential Scanning Calorimetry (DSC) analysis; type: physicochemical; conditions: 1 g/L antibody in 10 mM histidine, pH 6.0
[6] = 3 mg/kg po daily for 14 days from disease onset
[7] = means ± SEM, 3.19.3 10 mg/kg i.p every 3 days, hIgG i.p, Prednisolone 3 mg/kg p.o daily, 14 days from disease onset

## O=c1[nH]cc(F)c(=O)[nH]1 [5-flurouracil, 5-Flurouracil]
LoVo xenograft tumors
  % tumor growth inhibition: 62%
LoVo xenograft tumors; listed as 5 FU
  % tumor growth inhibition: 62%

## CCOc1cc2ncc(C(N)=O)c(Nc3ccc(F)cc3F)c2cc1N1CCN(C)CC1 [AZD6495, 4-[(2,4-difluorophenyl)amino]-7-ethoxy-6-(4-methylpiperazin-1-yl)quinoline-3-carboxamide]
MCF7 xenograft tumors
  % tumor growth inhibition: 32%
[1]
  % tumor growth inhibition: 25%

## CC(=O)O[C@@]12CO[C@@H]1C[C@H](O)[C@@]1(C)C(=O)[C@H](O)C3=C(C)[C@@H](OC(=O)[C@H](O)[C@@H](NC(=O)OC(C)(C)C)c4ccccc4)C[C@@](O)([C@@H](OC(=O)c4ccccc4)[C@H]21)C3(C)C [Docetaxel]
Calu6 xenograft tumors
  % tumor growth inhibition: 43%

## Nc1ccn([C@@H]2O[C@H](CO)[C@@H](O)C2(F)F)c(=O)n1 [Gemcitabine]
Colo205 xenograft tumors
  % tumor growth inhibition: 8%

## CCc1c2c(nc3ccc(OC(=O)N4CCC(N5CCCCC5)CC4)cc13)-c1cc3c(c(=O)n1C2)COC(=O)[C@]3(O)CC [Irinotecan]
HT-29 xenograft tumors
  % tumor growth inhibition: 56%

## O=C1[O][Pt]2([NH][C@@H]3CCCC[C@H]3[NH]2)[O]C1=O [Oxaliplatin]
H460 xenograft tumors
  % tumor growth inhibition: 35%

## C[C@]12C=CC(=O)C=C1CC[C@@H]1[C@@H]2[C@@H](O)C[C@@]2(C)[C@H]1CC[C@]2(O)C(=O)CO [Prednisolone]
[2]; [6]
  % inhibition (AUC of Clinical Score): 78% +/− 7%*
  AUC of Clinical Score: 41 +/− 08
[2]; 3.19.3 at 1 and 10 mg/kg, prednisolone 3 mg/kg
  CD31+ microvessel density in synovium (in words): significant reduction in microvessel density; also recorded: significant reduction in the presence of microvessels
[2]; Prednisolone 3 mg/kg p.o.
  incidence and severity of all measures (in words): marked reduction in the incidence and severity of all measures
[3]; 3.19.3 10 mg/kg, Human IgG isotype control, Prednisolone 3 mg/kg
  histopathological evaluation of arthropathy lesions (in words): marked reduction in the incidence and severity of all arthropathy lesions
[3]; [7]
  % Inhibition (of AUC of clinical disease progression): 76.1% ± 9.6%
  Area Under Curve (AUC) of clinical disease progression: 24.5 ± 9.6

B1: MEDI1/5 IgG1: heavy and light chains SEQ ID Nos. 7 and 3 in IgG1 format (antibody)
VH: QVQLVESGGGVVQPGRSLRLSCAASGFTFTNYGMHWVRQAPGKGLEWVAVISHDGNNKYYVDSVKGRFTISRDNSKNTLYLQMNSLRAEDTAVYYCAREGIDFWSGLNWFDPWGQGTLVTVSS
light: EIVLTQSPGTLSLSPGERATLSCRASQSITGSYLAWYQQKPGQAPRLLITGASSWATGIPDRFSGSGSGTDFTLTISRLEPEDFAVYYCQQYSSSPITFGQGTRLEIKRTVAAPSVFIFPPSDEQLKSGTASVVCLLNNFYPREAKVQWKVDNALQSGNSQESVTEQDSKDSTYSLSSTLTLSKADYEKHKVYACEVTHQGLSSPVTKSFNRGEC
modifications: IgG1 format
[4]
  % Agg/mth @ 25° C.: 0.21 % Agg/mth
  % Agg/mth @ 40° C.: 0.21 % Agg/mth
[5]
  melting temperature: about 76 °C

B2: MEDI1/5 IgG2: heavy and light chains SEQ ID Nos. 7 and 3 in IgG2 format (antibody)
VH: B1 VH
light: B1 light
modifications: IgG2 format
[4]
  % Agg/mth @ 25° C.: 0.61 % Agg/mth
  % Agg/mth @ 40° C.: 0.82 % Agg/mth
[5]
  melting temperature: about 76 °C
[5]; two independent trials
  behaviour after melting in DSC (in words): subsequently falls out of solution
